Test [1] concerns the target T1, β5 subunit of the human immunoproteasome (IPS) (Homo sapiens, UniProt P28062).
T1 construct: purchased Boston Biochem E-370
Put plainly: β5 inhibition assay, human immunoproteasome (Suc-LLVY-AMC). Type of test: biochemical. The following applies: IC50 class, Suc-LLVY-AMC substrate. The method in brief:
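Human immunoproteasome (1 nM final) was preincubated 10 min at RT with compound in 100 mM HEPES pH 7.5, 50 mM NaCl, 0.02% SDS, 1 mM DTT. Suc-LLVY-AMC (22.6 μM final) was then added for 4 h at RT in the dark. After stopping with 1 μM bortezomib, AMC fluorescence was read (ex 355/em 460 nm).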

Test [2] concerns the target T2, β5 subunit of the human constitutive proteasome (CPS) (Homo sapiens, UniProt P28074).
T2 construct: purchased Boston Biochem E-360
Put plainly: β5 inhibition assay, human constitutive proteasome (Suc-LLVY-AMC). Type of test: biochemical. To be noted: IC50 class, Suc-LLVY-AMC substrate. Here is the method:
The enzymatic activity of the β5 subunit of the human constitutive proteasome (CPS) is analyzed. In another assay, which differs from the assay of the human constitutive proteasome only in using the human immunoproteasome (IPS) the enzymatic activity of the β5 subunit of the human immunoproteasome (IPS) is analyzed. […] Inhibition is indicated as IC50 [nM] (“-”=not measured).

Test [3] has as its system RPMI 8226 (B lymphocyte cell line, multiple myeloma). In words: 48 hr CTG viability assay, RPMI 8226. The format is cell-based. The following applies: Homo sapiens, RPMI-8226; 48 hr CTG; read-out: RPMI-8226 IC50. An outline of the steps:
(§1)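 Growth inhibition by compound over 48 h; IC50 (nM) derived from duplicate CellTiter-Glo luminescence readings across 0.0015–10 uM.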

The subject of test [4] is Hs 746T (human gastric carcinoma cell line). In words: 48 hr CTG viability assay, Hs 746T. Type of test: cell-based. The following applies: Hs746T, 48 hr CTG, read-out: Hs 746T IC50. An outline of the steps:
as §1

For test [5], the system named is A549 (human lung carcinoma cell line). Put plainly: Glo assay of A549 cells (Table 3; ProteasomeGlo plating scheme). To be noted: Homo sapiens; A549 cells; read-out: PGLo A549. Type of test: cell-based. The method in brief: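 Luminescent read-out of cellular chymotrypsin-like proteasome activity: cells exposed to compound 105 min at 37° C., 5% CO2, then given Suc-LLVY-Glo reagent, shaken 2-5 min and kept dark 10-15 min before reading. Values are IC50 [nM].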

Test [6] relates to MM1 S (B lymphoblast cell line). Put plainly: 48 hr CTG viability assay, MM1S. The format is cell-based. To be noted: Homo sapiens, 48 hr CTG, read-out: MM1S IC50. An outline of the steps: as §1

For `Cc1ccc2cc1CNC(=O)[C@H](CCc1ccccc1)NC(=O)[C@@H](NC(=O)CCOCCC1CCCC1)CC(=O)N1CCCC(CCO2)C1` (stereo partly drawn) [Compound 623, 3-(2-cyclopentylethoxy)-N-((9S,12S)-5^4-methyl-8,11,14-trioxo-9-phenethyl-4-oxa-7,10-diaza-1(3,1)-piperidina-5(1,3)-benzenacyclotetradecaphane-12-yl)propanamide], the IC50 in test [1], in test [2], in test [3], in test [4], in test [5] and in test [6] was less than 100 nM each time.

Take `Cc1ccc2cc1CNC(=O)[C@H](CCc1ccccc1)NC(=O)[C@@H](N1CCCC1=O)CC(=O)N1CCCC(CCO2)C1` (stereo partly drawn) [Compound 728, (9S,12S)-5^4-methyl-12-(2-oxopyrrolidin-1-yl)-9-phenethyl-4-oxa-7,10-diaza-1(3,1)-piperidina-5(1,3)-benzenacyclotetradecaphane-8,11,14-trione]: the IC50 in test [1] fell in the range of 100 to 500 nM; in test [2] it was 100 to 500 nM; in test [3], 100 to 500 nM; in test [4] it was 1000 to 5000 nM; in test [5], 500 to 1000 nM; in test [6] it was 100 to 500 nM.

As for `Cc1ccc2cc1CNC(=O)[C@H](CCc1ccccc1)NC(=O)[C@@H](NC(=O)CCOc1ccccc1)CC(=O)N1CCCC(CCO2)C1` (stereo partly drawn) [Compound 591, N-((9S,12S)-5^4-methyl-8,11,14-trioxo-9-phenethyl-4-oxa-7,10-diaza-1(3,1)-piperidina-5(1,3)-benzenacyclotetradecaphane-12-yl)-3-phenoxypropanamide], the IC50 in test [1], in test [2], in test [3], in test [4], in test [5] and in test [6] was less than 100 nM throughout.

Regarding `Cc1ccc2cc1CNC(=O)[C@H](CCc1ccccc1)NC(=O)[C@@H](NC(=O)CCN1CCC3(CCCCC3)CC1)CC(=O)N1CCCC(CCO2)C1` (stereo partly drawn) [Compound 608, N-((9S,12S)-5^4-methyl-8,11,14-trioxo-9-phenethyl-4-oxa-7,10-diaza-1(3,1)-piperidina-5(1,3)-benzenacyclotetradecaphane-12-yl)-3-(3-azaspiro[5.5]undecan-3-yl)propanamide], the IC50 in test [1], in test [2], in test [3], in test [4], in test [5] and in test [6] was less than 100 nM in each case.

Take `O=C(Cc1ccccc1)N[C@H]1CC(=O)N2CCCC(CCOc3ccc(F)c(c3)CNC(=O)[C@H](CCc3ccccc3)NC1=O)C2` (stereo partly drawn) [Compound 661, N-((9S,12S)-5^4-fluoro-8,11,14-trioxo-9-phenethyl-4-oxa-7,10-diaza-1(3,1)-piperidina-5(1,3)-benzenacyclotetradecaphane-12-yl)-2-phenylacetamide]: the IC50 in test [1], in test [2], in test [3], in test [4], in test [5] and in test [6] was less than 100 nM in each case.

In the case of `Cc1ccc2cc1CNC(=O)[C@H](CCc1ccccc1)NC(=O)[C@@H](NCC(C)(C)N)CC(=O)N1CCCC(CCO2)C1` (stereo partly drawn) [Compound 727, (9S,12S)-12-((2-amino-2-methylpropyl)amino)-5^4-methyl-9-phenethyl-4-oxa-7,10-diaza-1(3,1)-piperidina-5(1,3)-benzenacyclotetradecaphane-8,11,14-trione], the IC50 in test [1] is less than 100 nM; in test [2], less than 100 nM; in test [3] it was 100 to 500 nM; in test [4], 1000 to 5000 nM; in test [5], 100 to 500 nM; in test [6], 500 to 1000 nM.

As for `Cc1ccc2cc1CNC(=O)C(CCc1ccncc1)NC(=O)[C@@H](NC(=O)Cc1ccc(N)cc1C)CC(=O)N1CCCC(CCO2)C1` (stereo partly drawn) [Compound 678, 2-(4-amino-2-methylphenyl)-N-((12S)-5^4-methyl-8,11,14-trioxo-9-(2-(pyridin-4-yl)ethyl)-4-oxa-7,10-diaza-1(3,1)-piperidina-5(1,3)-benzenacyclotetradecaphane-12-yl)acetamide], the IC50 in test [1], in test [2], in test [3], in test [4], in test [5] and in test [6] was less than 100 nM throughout.

On to `Cc1ccc2cc1CNC(=O)[C@H](CCc1ccncc1)NC(=O)[C@@H](NC(=O)Cc1ccccc1F)CC(=O)N1CCCC(CCO2)C1` (stereo partly drawn) [Compound 737, 2-(2-fluorophenyl)-N-((9S,12S)-5^4-methyl-8,11,14-trioxo-9-(2-(pyridin-4-yl)ethyl)-4-oxa-7,10-diaza-1(3,1)-piperidina-5(1,3)-benzenacyclotetradecaphane-12-yl)acetamide], for which the IC50 in test [1], in test [2], in test [3], in test [4], in test [5] and in test [6] was less than 100 nM throughout.

`Cc1ccc2cc1CNC(=O)[C@H](CCc1ccccc1)NC(=O)[C@@H](NC(=O)C13CC(N)(C1)C3)CC(=O)N1CCCC(CCO2)C1` (stereo partly drawn) [Compound 662, 3-amino-N-((9S,12S)-5^4-methyl-8,11,14-trioxo-9-phenethyl-4-oxa-7,10-diaza-1(3,1)-piperidina-5(1,3)-benzenacyclotetradecaphane-12-yl)bicyclo[1.1.1]pentane-1-carboxamide]: the IC50 in test [1], in test [2], in test [3], in test [4], in test [5] and in test [6] was less than 100 nM in each case.

For `Cc1ccc2cc1CNC(=O)[C@H](CCc1ccccc1)NC(=O)[C@@H](NC1CC3C=CC1C3)CC(=O)N1CCCC(CCO2)C1` (stereo partly drawn) [Compound 711, (9S,12S)-12-(bicyclo[2.2.1]hept-5-en-2-ylamino)-5^4-methyl-9-phenethyl-4-oxa-7,10-diaza-1(3,1)-piperidina-5(1,3)-benzenacyclotetradecaphane-8,11,14-trione], the IC50 was less than 100 nM in test [1]; less than 100 nM in test [2]; less than 100 nM in test [3]; 100 to 500 nM in test [4]; 100 to 500 nM in test [5]; less than 100 nM in test [6].

On to `Cc1cn([C@H]2CC(=O)N3CCCC(CCOc4ccc(C)c(c4)CNC(=O)[C@H](CCc4ccccc4)NC2=O)C3)nn1` (stereo partly drawn) [Compound 740, (9S,12S)-5^4-methyl-12-(4-methyl-1H-1,2,3-triazol-1-yl)-9-phenethyl-4-oxa-7,10-diaza-1(3,1)-piperidina-5(1,3)-benzenacyclotetradecaphane-8,11,14-trione], for which the IC50 in test [1] was less than 100 nM; in test [2], less than 100 nM; in test [3] it was 100 to 500 nM; in test [4] it was 1000 to 5000 nM; in test [5] it was 100 to 500 nM; in test [6], 100 to 500 nM.

As for `Cc1ccc2cc1CNC(=O)[C@H](CCc1ccccc1)NC(=O)[C@@H](NC(=O)CCOCCc1ccccc1)CC(=O)N1CCCC(CCO2)C1` (stereo partly drawn) [Compound 618, N-((9S,12S)-5^4-methyl-8,11,14-trioxo-9-phenethyl-4-oxa-7,10-diaza-1(3,1)-piperidina-5(1,3)-benzenacyclotetradecaphane-12-yl)-3-phenethoxypropanamide], the IC50 in test [1], in test [2], in test [3], in test [4], in test [5] and in test [6] was less than 100 nM throughout.

The values above are taken from patent US20240415819A1, “MACROCYCLIC COMPOUNDS AS PROTEASOME SUBUNIT BETA TYPE-5 INHIBITORS” (Lead Discovery Center GmbH, priority 2021, published 2024).
